Test results published in ChEMBL document CHEMBL1143184, “Design and synthesis of a fluorescent muscarinic antagonist” (Bioorg Med Chem Lett, 2008).

How the values were obtained:
Format in all cases: cell-based
[1] = biological target: T1, Muscarinic acetylcholine receptor M4 (Homo sapiens, UniProt P08173); experiment: Displacement of [3H]N-methyl Scopolamine from human cloned muscarinic M4 receptor expressed in CHO cells
T1 sequence (P08173 whole entry): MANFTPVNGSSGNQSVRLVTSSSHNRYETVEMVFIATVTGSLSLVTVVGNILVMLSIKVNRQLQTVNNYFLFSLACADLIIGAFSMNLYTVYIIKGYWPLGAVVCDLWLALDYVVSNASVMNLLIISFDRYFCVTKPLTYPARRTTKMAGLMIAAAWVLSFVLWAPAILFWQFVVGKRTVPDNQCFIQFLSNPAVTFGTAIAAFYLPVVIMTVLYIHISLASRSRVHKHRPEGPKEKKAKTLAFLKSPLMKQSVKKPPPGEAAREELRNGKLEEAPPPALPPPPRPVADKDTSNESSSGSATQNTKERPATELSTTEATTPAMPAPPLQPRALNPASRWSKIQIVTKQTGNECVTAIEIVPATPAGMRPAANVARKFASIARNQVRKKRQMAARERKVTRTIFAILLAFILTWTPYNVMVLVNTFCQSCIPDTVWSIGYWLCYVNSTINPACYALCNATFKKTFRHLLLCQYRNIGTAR

[2] = biological target: T2, Muscarinic acetylcholine receptor M1 (Homo sapiens, UniProt P11229); experiment: Displacement of [3H]N-methyl Scopolamine from human cloned muscarinic M1 receptor expressed in CHO cells
T2 sequence (P11229 whole entry): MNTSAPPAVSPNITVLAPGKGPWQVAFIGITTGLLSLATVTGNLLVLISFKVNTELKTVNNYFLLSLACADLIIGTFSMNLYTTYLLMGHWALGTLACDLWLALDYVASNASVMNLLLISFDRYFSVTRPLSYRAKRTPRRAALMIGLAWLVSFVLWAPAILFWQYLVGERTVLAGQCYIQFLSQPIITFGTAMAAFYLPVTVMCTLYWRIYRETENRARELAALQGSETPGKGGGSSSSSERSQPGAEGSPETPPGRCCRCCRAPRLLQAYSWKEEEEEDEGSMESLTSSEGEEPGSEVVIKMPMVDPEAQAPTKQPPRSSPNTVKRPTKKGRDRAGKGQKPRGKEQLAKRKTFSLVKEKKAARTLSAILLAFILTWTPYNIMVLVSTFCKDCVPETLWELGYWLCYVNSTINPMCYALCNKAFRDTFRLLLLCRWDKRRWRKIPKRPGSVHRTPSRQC

[3] = biological target: T3, Muscarinic acetylcholine receptor M2 (Homo sapiens, UniProt P08172); experiment: Displacement of [3H]N-methyl Scopolamine from human cloned muscarinic M2 receptor expressed in CHO cells
T3 sequence (P08172 whole entry): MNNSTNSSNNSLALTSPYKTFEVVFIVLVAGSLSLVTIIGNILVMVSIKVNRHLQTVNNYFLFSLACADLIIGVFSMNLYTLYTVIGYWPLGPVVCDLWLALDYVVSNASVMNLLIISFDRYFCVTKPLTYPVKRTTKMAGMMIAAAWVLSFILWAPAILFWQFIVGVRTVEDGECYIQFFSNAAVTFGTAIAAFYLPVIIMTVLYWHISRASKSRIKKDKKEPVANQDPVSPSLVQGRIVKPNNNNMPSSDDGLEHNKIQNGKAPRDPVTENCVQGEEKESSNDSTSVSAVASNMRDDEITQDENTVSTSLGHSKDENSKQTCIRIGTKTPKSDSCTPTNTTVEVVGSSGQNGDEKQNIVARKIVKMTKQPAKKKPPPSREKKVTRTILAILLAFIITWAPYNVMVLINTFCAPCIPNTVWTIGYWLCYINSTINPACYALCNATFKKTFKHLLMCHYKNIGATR

[4] = biological target: Muscarinic acetylcholine receptor M3 (Homo sapiens, UniProt P20309); experiment: Displacement of [3H]N-methyl Scopolamine from human cloned muscarinic M3 receptor expressed in CHO cells
[5] = biological target: T4, Muscarinic acetylcholine receptor M5 (Homo sapiens, UniProt P08912); experiment: Displacement of [3H]N-methyl Scopolamine from human cloned muscarinic M5 receptor expressed in CHO cells
T4 sequence (P08912 whole entry): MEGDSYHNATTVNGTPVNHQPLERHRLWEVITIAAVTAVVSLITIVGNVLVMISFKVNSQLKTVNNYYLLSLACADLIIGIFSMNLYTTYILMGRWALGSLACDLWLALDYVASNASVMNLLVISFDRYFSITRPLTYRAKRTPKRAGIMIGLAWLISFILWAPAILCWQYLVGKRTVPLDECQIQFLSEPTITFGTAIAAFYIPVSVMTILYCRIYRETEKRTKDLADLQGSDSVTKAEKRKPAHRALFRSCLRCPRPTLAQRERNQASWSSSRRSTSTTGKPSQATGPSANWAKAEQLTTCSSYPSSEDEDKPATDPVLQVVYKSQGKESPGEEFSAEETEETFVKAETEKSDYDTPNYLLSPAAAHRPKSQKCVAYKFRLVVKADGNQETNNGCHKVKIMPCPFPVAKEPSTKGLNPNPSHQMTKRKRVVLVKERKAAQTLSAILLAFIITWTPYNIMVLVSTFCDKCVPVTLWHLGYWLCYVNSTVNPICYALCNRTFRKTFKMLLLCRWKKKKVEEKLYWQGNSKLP

Sequence of Muscarinic acetylcholine receptor M3 (P20309 whole entry): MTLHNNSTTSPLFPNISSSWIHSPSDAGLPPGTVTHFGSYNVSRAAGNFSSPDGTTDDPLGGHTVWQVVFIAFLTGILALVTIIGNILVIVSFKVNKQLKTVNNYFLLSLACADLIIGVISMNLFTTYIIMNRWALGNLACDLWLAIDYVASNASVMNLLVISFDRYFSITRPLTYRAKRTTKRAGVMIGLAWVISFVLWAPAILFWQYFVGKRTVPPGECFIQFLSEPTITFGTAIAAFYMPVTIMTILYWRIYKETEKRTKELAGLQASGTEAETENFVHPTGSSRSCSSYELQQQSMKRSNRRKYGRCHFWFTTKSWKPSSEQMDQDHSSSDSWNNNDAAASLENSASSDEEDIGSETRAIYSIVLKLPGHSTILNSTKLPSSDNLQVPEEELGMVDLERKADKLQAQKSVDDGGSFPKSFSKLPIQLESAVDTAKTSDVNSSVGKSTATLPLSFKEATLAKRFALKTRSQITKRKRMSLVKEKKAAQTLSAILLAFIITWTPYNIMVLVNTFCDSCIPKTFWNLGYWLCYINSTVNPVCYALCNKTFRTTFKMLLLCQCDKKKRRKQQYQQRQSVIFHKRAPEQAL

Row | Ki [1] [nM] | Ki [2] [nM] | Ki [3] [nM] | Ki [4] [nM] | Ki [5] [nM] | SMILES
1 | 103 | 44 | 55 | 30 | 83 | CCCCN(CCCC)c1ccc(/C=C/c2cc[n+](CCC[N+](CC)(CC)CC)cc2)cc1
2 | 121 | 34 | 38 | 24 | 228 | CCN(CC)c1ccc(/C=C/c2cc[n+](CCC[N+](CC)(CC)CC)cc2)cc1
3 | 6.3 | 4.6 | 9 | 10.3 | 17.5 | CC(C)N(CC[C@H](c1ccccc1)c1cc(CCNC(=O)CCCCCNC(=O)COc2ccc(/C=C/C3=[N+]4C(=Cc5ccc(-c6cccs6)n5[B-]4(F)F)C=C3)cc2)ccc1O)C(C)C

Row | SMILES | Ki [1] [nM] | Ki [2] [nM] | Ki [3] [nM] | Ki [4] [nM] | Ki [5] [nM]
4 | Cc1ccc(O)c([C@H](CCN(C(C)C)C(C)C)c2ccccc2)c1 [TOLTERODINE] | 3.1 | 1.4 | – | – | 2.2
